Test results published in publication PMC6013775, “Inhibition of the key enzyme of sialic acid biosynthesis by C6-Se modified N-acetylmannosamine analogs” (Chemical Science, 2016).
Several values for one entry are separate records, joined by “and”; a condition that tells them apart may be missing. Equal entries are not always repeated.

Tests used:
Format in all cases: biochemical
[1] = target: T1, human MNK (N-acetylmannosamine kinase) (Homo sapiens, UniProt Q9Y223); experiment: MNK activity, coupled optical assay based on NADH consumption
T1 construct: His; made in house; host or cells: Escherichia coli BL21-CodonPlus (DE3)-RIL
T1 sequence (Q9Y223 406-722 limits assumed): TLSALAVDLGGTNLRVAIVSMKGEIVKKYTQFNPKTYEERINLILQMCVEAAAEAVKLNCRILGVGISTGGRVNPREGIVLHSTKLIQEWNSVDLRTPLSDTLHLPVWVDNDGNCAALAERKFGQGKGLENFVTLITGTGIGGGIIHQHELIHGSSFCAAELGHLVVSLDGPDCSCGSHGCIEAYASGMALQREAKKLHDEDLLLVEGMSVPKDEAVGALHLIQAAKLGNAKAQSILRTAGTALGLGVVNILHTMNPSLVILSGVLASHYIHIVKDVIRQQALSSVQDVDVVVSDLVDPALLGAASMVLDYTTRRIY
Experimental: (§1) N-Acetylmannosamine kinase and N-acetylglucosamine kinase expression and […]
(§2) Human N-acetylmannosamine kinase (MNK) was expressed and purified using an established method.1 Therefore, his-tagged MNK was expressed in BL21-CodonPlus (DE3)-RIL Escherichia coli (Stragene). Purification was performed by Ni-NTA affinity chromatography, and subsequently size exclusion chromatography on a SuperdexTM HighLoad 16/600 column (GE Healthcare). […]
To evaluate their purity, protein samples were mixed with SDS-PAGE sample buffer, denatured at 90 °C for 1 min and separated by a 10% SDS-PAGE gel. Proteins were visualized with Coomassie G-250 staining solution (Biorad), and PageRuler Prestained Plus (Biorad) was used as a marker (Figure S1 ).
Figure S1. SDS-PAGE of His-tagged MNK (His-MNK) and GST-tagged GNK
(GST-GNK) after affinity chromatography and size exclusion chromatography.
Apparent molecular masses given by the marker are indicated on the left side.
1 J. Martinez, L. D. Nguyen, S. Hinderlich, R. Zimmer, E. Tauberger, W. Reutter, W. Saenger, H. Fan
2 W.A. Weihofen, M. Berger, H. Chen, W. Saenger, and S. Hinderlich, J. Mol. Biol., 2006, 364, 388.
(1 picture or pasted object on this page, not shown here)
(§3) Enzyme activity and inhibition studies using N-acetylmannosamine kinase, N-acetylglucosamine kinase and yeast hexokinase
(§4) Evaluation MNK activity in presence of the compounds 11, 12, 14b, 16b and 18b The effects of compounds 11, 12, 14b, 16b, or 18b on MNK enzyme activity were evaluated using a coupled optical assay. 55 µl reaction mixture contained the following buffers and reagents: 39.5 µl buffer A (65 mM MgCl2, 200 mM Tris-HCl, pH 8.1), 5 µl ATP (50 mM), 3.5 µl NADH (30 mM), 2 µl phosphoenolpyruvate (100 mM), 2 U pyruvate-kinase, 2 U lactate-dehydrogenase, 5 µl ManNAc of varying concentrations. Subsequently, 10 µl of the compounds 11, 12, 14b, 16b and 18b were added in varying concentrations. The reaction was initiated by adding 0.6 µg MNK in 35 µL buffer B (10 mM Tris-HCl, 150 mM NaCl, pH 8.0). Samples were incubated at 37°C. Spectrophotometric measurements of NADH concentration was performed at 340 nm. Results obtained were normalized to blanks, consisting of 55 µl reaction mixture, 10 µl H 2O and 35 µl buffer B without MNK.
GNK and hexokinase inhibition assays using compound 14b
To evaluate the specificity of the inhibitor 14b towards other sugar kinases, we performed further inhibition experiments using human GNK and hexokinase (HK) from yeast (Sigma, H-5000). 39.5 µl Buffer A (see above), 5 µl ATP (50 mM), 3.5 µl NADH (30 mM), 2 µl phosphoenolpyruvate (100 mM), 2 U pyruvate-kinase, 2 U lactate-dehydrogenase, 5 µl GlcNAc (7.5 mM, for GNK experiments), or 5 µl ManNAc (7.5 mM, for GNK experiments), or glucose (5 mM, for HK experiments), and 10 µl 14b (varying concentrations) were mixed with either 1 µg GNK or 0.2 µg HK in 35 µL buffer B. The decrease of NADH was measured in a spectrophotometer […]
5 mM for HK activity, respectively (Figure S2).
Figure S2. Inhibition of GNK and HK activity by 14b. Values are means ± SEM of […]

[2] = target: hexokinase (HK) from yeast; experiment: Hexokinase inhibition, coupled optical assay; conditions: glucose substrate
Source text: (§5) With the potent diselenide compound 14b in hand, we further studied the binding properties of this potent MNK inhibitor, which is to our knowledge the strongest MNK inhibitor reported to date. Diselenide 14b inhibited MNK activity in a dose dependent manner (Fig. 2A). […] Additionally, we tested if diselenide 14b influenced the GNE activity of the bifunctional GNE/MNK. […] To evaluate the specificity of the inhibitor towards other sugar kinases, we performed further inhibition studies using human GlcNAc kinase (GNK) and hexokinase (HK) from yeast (details in ESI ^†).
as §3
as §4, with “Samples were incubated at 37°C. Spectrophotometric measurements of NADH concentration was performed at 340 nm. Results obtained were normalized to blanks, consisting of 55 µl reaction mixture, 10 µl H 2O and 35 µl buffer B without MNK.” left out

[3] = target: T2, human GlcNAc kinase (GNK) (Homo sapiens, UniProt Q9UJ70); experiment: GNK inhibition, coupled optical assay
T2 construct: GST; made in house; host or cells: Escherichia coli BL21-CodonPlus(DE3)-RIL
T2 sequence (Q9UJ70 whole entry): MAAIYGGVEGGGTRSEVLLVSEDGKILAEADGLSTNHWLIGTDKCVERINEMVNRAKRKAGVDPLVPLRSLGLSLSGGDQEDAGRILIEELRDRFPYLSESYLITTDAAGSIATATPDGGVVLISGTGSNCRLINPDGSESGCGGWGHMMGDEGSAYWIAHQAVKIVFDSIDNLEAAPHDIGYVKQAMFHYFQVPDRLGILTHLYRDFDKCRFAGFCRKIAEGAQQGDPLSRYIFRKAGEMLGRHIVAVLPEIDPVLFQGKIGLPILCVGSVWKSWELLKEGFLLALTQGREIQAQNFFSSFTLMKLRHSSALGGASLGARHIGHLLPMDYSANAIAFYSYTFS
Source text: as §5, §1, §2
Evaluation MNK activity in presence of the compounds 11, 12, 14b, 16b and 18b The effects of compounds 11, 12, 14b, 16b, or 18b on MNK enzyme activity were evaluated using a coupled optical assay. […]

CC(=O)N[C@@H]1C(O)O[C@H](C[Se][Se]C[C@H]2OC(O)[C@@H](NC(C)=O)[C@@H](O)[C@@H]2O)[C@@H](O)[C@@H]1O (some centres unmarked) [Compound 14b]
mode of inhibition towards ManNAc ([1]; 14b 25 μM, different concentrations of ManNAc): competitive inhibition | Ki ([1]; 14b 25 μM, different concentrations of ManNAc, Lineweaver-Burk plot, read-out: inhibitor constant (Ki)): 15.7 µM | IC50 ([1]; purified human MNK, ManNAc 125 μM, ATP, means ± SEM, read-out: IC50 for MNK inhibition): 8.5 µM | IC50 [2]: > 5000 µM | IC50 [3]: ~1700 µM and 1700 µM
